Experiments:
[1] = test system: HCV replicon in T7-11 cells; test: Subcutaneous T7-11 replicon cell model in gamma-irradiated SCID mice (bioluminescence, NS5B IFA, RT-PCR, cPARP, Ki67)
Protocol: Efficacy studies with T7-11 implanted mice were initiated when the bioluminescence signal was stable and approximately two logs above background. […] Control animals received human albumin.
BILN 2061 was administered at 30 mg/kg once daily starting day 21-post subcutaneous implantation of T7-11 cells.
Cell implantation. Female SCID mice were shaved at the site of cell implantation and gamma-irradiated with 3 Gy either one-day prior to or on the same day as cell implant. For subcutaneous implantation, five million cells in 0.2 ml of HBSS were implanted at the right flank.
Whole body in vivo imaging. Anesthetized mice were injected intraperitoneally with 150 mg/kg of luciferin (Xenogen Corporation, Alameda, Calif.). After 10-20 minutes, mice were imaged using a CCD camera in the Xenogen IVIS™ imaging system. The bioluminescence signal intensity was quantified using Living Image Software (Xenogen Corporation, Alameda, Calif.).
Statistical analysis. Differences in bioluminescence signal between control and treatment groups of mice were compared by the two-tailed Mann-Whitney test. Differences in signal among the control, treatment and rebound groups of mice and among combination groups were compared by the nonparametric Kruskal-Wallis test A P-value <0.05 was considered significant.

[2] = test system: HCV replicon in T7-11 cells; test: Liver model with T7-11 replicon cells in gamma-irradiated SCID mice; type: in vivo; settings: 30 mg/kg SC once daily from day 25 post tumor cell implantation; within three days
Protocol: To evaluate the efficacy of IFN-α in liver, T7-11 cells were directly injected into one lobe of the liver in gamma irradiated SCID mice. […] To confirm that the luciferase signal was associated with the liver, the locations of tumors were determined by physical examination at the end of study
The antiviral effect of BILN 2061 on HCV replication was also examined. BILN 2061 was administered subcutaneously at 30 mg/kg once daily starting day 25-post tumor cell implantation.
Whole body in vivo imaging.

[3] = Pharmacokinetic (PK) data, subcutaneous route; type: in vivo

Substance	effect on bioluminescence signal ([1]; 1 mg/kg, over 5 days of treatment)	fold decline in bioluminescence compared to the untreated control group [2] [fold]	duration of sustained plasma exposure [3]	signal after treatment was terminated ([1]; 30 mg/kg SC QD three days, several days after termination)	adverse effect on the replicon-containing cells ([1]; 30 mg/kg SC once daily for three days)	decrease of bioluminescence signal compared to the control group ([1]; 30 mg/kg SC once daily from day 21, within three days)	fold decrease of mean bioluminescence signal as compared to the control group ([1]; two days after treatment, SC daily from day 18, BILN 2061 30 mg/kg and/or IFN-α 15,000 IU) [fold]
Interleukin 2 [IL-2]	no effect						
BILN 2061		10	more than 24 hr	returned to the levels similar to the untreated control group	did not have any adverse effect on the replicon-containing cells	approximately two	16

From US20100017895A1, “Small animal model for hcv replication” (priority 2005, published 2010)
